According to ChEMBL document CHEMBL4024722, “Discovery of acylguanidine oseltamivir carboxylate derivatives as potent neuraminidase inhibitors” (Bioorg Med Chem, 2017):

Tests used:
[1] = Inhibition of Influenza A virus (A/Puerto Rico/8/1934(H1N1)) neuraminidase H259Y mutant using 4-MU-NANA as substrate preincubated for 10 mins followed by substrate addition measured after 1 hr by fluorescence assay
[2] = tested on: Influenza A virus; assay: Antiviral activity against Influenza A virus (A/Puerto Rico/8/1934(H1N1)) harboring wild type neuraminidase assessed as inhibition of viral replication preincubated for 36 hrs followed by reinfection in new monolayer of MDCK cells every 1 hr for 12 hrs; format: functional
[3] = Antiviral activity against Influenza A virus (A/Hong Kong/498/97(H3N2)) harboring wild type neuraminidase infected in MDCK cells assessed as inhibition of viral replication preincubated for 36 hrs followed by reinfection in new monolayer of MDCK cells every 1 hr for 24 hrs; format: functional, cell-based
[4] = tested on: Influenza A virus; format: functional, cell-based, A/Puerto Rico/8/1934(H1N1)
[5] = in vitro; conditions: dog, MDCK cells

| SMILES | IC50 [1] [nM] | EC50 [2] [nM] | EC50 [3] [nM] | EC50 [4] [nM] | selectivity ratio [5] |
| --- | --- | --- | --- | --- | --- |
| CCC(CC)O[C@@H]1C=C(C(=O)O)C[C@H](NC(=N)NC(=O)Cc2ccc3ccccc3c2)[C@H]1NC(C)=O | 66.7 | 8.45 | 3.95 | 11.3 | > 88.6 |
| CCCCC(=O)NC(=N)N[C@H]1CC(C(=O)O)=C[C@@H](OC(CC)CC)[C@@H]1NC(C)=O | 163 | – | – | – | – |
| CCC(CC)O[C@@H]1C=C(C(=O)O)C[C@H](NC(=N)NC(=O)CCc2ccccc2)[C@H]1NC(C)=O | 114 | – | – | – | – |
| CCC(CC)O[C@@H]1C=C(C(=O)O)C[C@H](NC(=N)NC(=O)c2cccc(C)c2)[C@H]1NC(C)=O | > 1000 | – | – | – | – |
| CCCC(=O)NC(=N)N[C@H]1CC(C(=O)O)=C[C@@H](OC(CC)CC)[C@@H]1NC(C)=O | 133 | – | – | – | – |
| CCC(CC)O[C@@H]1C=C(C(=O)O)C[C@H](NC(=N)NC(=O)CCc2ccc(OC)c(OC)c2)[C@H]1NC(C)=O | 14.5 | 20.1 | 5.62 | 23 | > 43.4 |
| CCC(CC)O[C@@H]1C=C(C(=O)O)C[C@H](NC(=N)NC(=O)Cc2ccc(C)cc2)[C@H]1NC(C)=O | 132 | – | – | – | – |
| CCC(CC)O[C@@H]1C=C(C(=O)O)C[C@H](NC(=N)NC(=O)c2ccc([N+](=O)[O-])cc2)[C@H]1NC(C)=O | 57.8 | 160 | 39.2 | 136 | > 7.4 |
| CCC(CC)O[C@@H]1C=C(C(=O)O)C[C@H](NC(=N)NC(=O)C(C)C)[C@H]1NC(C)=O | 132 | – | – | – | – |
| CCC(CC)O[C@@H]1C=C(C(=O)O)C[C@H](NC(=N)NC(=O)CCc2cccnc2)[C@H]1NC(C)=O | 21.1 | – | – | – | – |
| CCC(CC)O[C@@H]1C=C(C(=O)O)C[C@H](NC(=N)NC(=O)CC(C)C)[C@H]1NC(C)=O | 445 | – | – | – | – |
| CCC(=O)NC(=N)N[C@H]1CC(C(=O)O)=C[C@@H](OC(CC)CC)[C@@H]1NC(C)=O | 74.2 | 23.9 | 5.3 | 37.3 | > 26.8 |
| CCC(CC)O[C@@H]1C=C(C(=O)O)C[C@H](NC(=N)NC(=O)CCCc2ccccc2)[C@H]1NC(C)=O | 221 | – | – | – | – |
| C=CCCC(=O)NC(=N)N[C@H]1CC(C(=O)O)=C[C@@H](OC(CC)CC)[C@@H]1NC(C)=O | 30.5 | 24.5 | 9.45 | 7.18 | > 139 |
| CCC(CC)O[C@@H]1C=C(C(=O)O)C[C@H](NC(=N)NC(=O)Cc2ccc(Br)cc2)[C@H]1NC(C)=O | 40.6 | 12.9 | 2.58 | 69.1 | > 14.5 |
| CCC(CC)O[C@@H]1C=C(C(=O)O)C[C@H](NC(=N)NC(=O)Cc2ccccc2C)[C@H]1NC(C)=O | 225 | – | – | – | – |
| CCC(CC)O[C@@H]1C=C(C(=O)O)C[C@H](NC(=N)NC(=O)c2ccncc2)[C@H]1NC(C)=O | 36.8 | – | – | – | – |
